# Source: paper PMC9860980, “Pharmacokinetics and Pharmacodynamics (PK/PD) of Corallopyronin A against Methicillin-Resistant Staphylococcus aureus” (Pharmaceutics, 2022)
# Tests used:
# [1] = system: S. aureus strain ATCC 33591 (MRSA-strain); assay: Neutropenic lung infection model with MRSA; assay type: in vivo, Staphylococcus aureus; conditions: 100 mg/kg IP (t = 2 h post infection); 24 h post infection
# Description: Female, 8-week-old CD-1 mice (Charles River, Sulzfeld, Germany) were used (n = 6 animals per group). Animals were rendered neutropenic by administration of 150 mg/kg and 100 mg/kg cyclophosphamide IP on days -4 and -1, respectively. On the day of infection (day 0), mice received 15 µL of the inoculum administered via an Aeroneb® nebulizer device (Kent Scientific, Torrington, CT, USA) under anesthesia (100 mg/kg ketamine and 10 mg/kg xylazine). Mice were treated with (I) vehicle IP (PEG400/PBS), (II) with levofloxacin at 100 mg/kg IP (t = 2 h post infection, positive control group), (III) CorA at 60 mg/kg IP TID (t = 2, 5 and 9 h post infection) or (IV) CorA at 60 mg/kg IP (t = 2 h post infection) and 100 mg/kg SC BID (t = 5 and 9 h post infection).
# Twenty-four hours after infection, mice were euthanized, blood was removed from the heart and lungs were aseptically removed. Whole blood was collected into Eppendorf (Hamburg, Germany) tubes coated with 0.5 M EDTA, immediately spun down at 13,000 rpm for 10 min at 4 °C, the plasma transferred into a new Eppendorf tube and stored at −80 °C until analysis. Organs were homogenized in isotonic sodium chloride solution and plated onto blood agar plates in duplicates in serial dilutions and incubated at 37 °C for 24 h.
# [2] = system: S. aureus strain ATCC 33591 (MRSA-strain); conditions: 5 mg/kg IP TID; 24 h post infection
# Description: Organ samples were thawed and homogenized using a Polytron tissue homogenizer after addition of 3 mL isotonic sodium chloride solution. First, a calibration curve was prepared by spiking different concentrations of CorA into the respective matrix from CD-1 mice. Caffeine was used as an internal standard. In addition, quality control samples (QCs) were prepared for CorA for every matrix. For PD samples, calibration curve and QCs were prepared for levofloxacin using the same protocol. The following extraction procedure was used: 50 µL of a sample (calibration sample, QCs, PK or PD sample) was extracted with 20 µL of acetic acid in water (10/90 (v/v)) and 30 µL acetonitrile for 5 min at 800 rpm on an Eppendorf MixMate® vortex mixer. Then, samples were spun down for 20 min at 4 °C and 4000 rpm and supernatants were transferred to new Greiner 96-well V-bottom plates. Samples were analyzed using an Agilent 1290 Infinity II HPLC system (Waldbronn, Germany) coupled to an AB Sciex QTrap6500plus mass spectrometer (Darmstadt, Germany). LC conditions were as follows: column: Agilent Zorbax Exlipse Plus C18, 50 × 2.1 mm, 1.8 µm; temperature: 30 °C; injection volume: 5 µL per sample; flow rate: 800 µL/min. Samples were run under buffered conditions: A: 95% water + 5% acetonitrile + 5 mM ammonium acetate + 40 µL/L acetic acid; B: 95% acetonitrile + 5% water + 5 mM ammonium acetate + 40 µL/L acetic acid. The gradient was as follows: 99% A at 0 min, 99% A until 0.1 min, 99–0% A from 0.1 min to 4.0 min, 0% A until 4.5 min. Mass transitions for controls and compounds are depicted in Table S1. Peaks of PK samples were quantified using the calibration curve. The accuracy of the calibration curve was determined using QCs independently prepared on different days. PK parameters were determined using a non-compartmental analysis with PKSolver.
# Inocula were prepared as described previously with the modification that isotonic sodium chloride solution was used instead of PBS [25]. For the neutropenic thigh and the neutropenic lung infection model the S. aureus strain ATCC 33591 (MRSA-strain) was used. For the neutropenic lung infection model an inoculum of 2 × 10^9 cfu/mL was used. For the neutropenic thigh infection model an inoculum of 7 × 10^5 cfu/mL was used.
# The model was conducted as described previously. In brief, the following groups were used: (1) inoculum control group with terminal endpoint at 2 h post infection to determine baseline inoculum in vivo; (2) vehicle-treated group receiving 20 mg/kg SC tramadol and vehicle (PEG400/PBS (80:20 (v/v)); (3) levofloxacin group 5 mg/kg IP three times a day (TID) (t = 2, 6 and 10 h post infection); (4) CorA 60 mg/kg IP TID (t = 2, 6 and 10 h post infection) and (5) CorA 100 mg/kg IP BID (t = 2 and 6 h post infection). The endpoint for groups no. 2–5 was 24 h post infection. A solution of […].
smiles,measurement,setting,value
"C[C@H]1COc2c(N3CCN(C)CC3)c(F)cc3c(=O)c(C(=O)O)cn1c23 [Levofloxacin, reference compound]",reduction in bacterial burden in lung tissue,[1],more than 2 log10-units
same,bacterial burden in thigh tissue,[2],significant reduction
same,reduction of bacterial burden in lung tissue compared to the vehicle-treated group,[2],approximately 2 log10-units
